Data set [1] has as its system hypercholesterolemic Sprague Dawley rats. In words: Plasma triglyceride and cholesterol lowering activity in hypercholesterolemic rat models. It counts as in vivo. To be noted: 1 mg/kg oral, results after 3 days. As for the experimental part:
b) Plasma triglyceride and Cholesterol lowering activity in hypercholesterolemic rat models Male Sprague Dawley rats (NIN stock) were bred in DRF animal house. Animals were maintained under 12 hour light and dark cycle at 25±1° C. Rats of 180-200 gram body weight range were used for the experiment. Animals are made hypercholesterolemic by feeding 2% cholesterol and 1% sodium cholate mixed with standard laboratory chow [National Institute of Nutrition (NIN), Hyderabad, India] for 6 days. Throughout the experimental period the animals were maintained on the same diet (Petit, D., Bonnefis, M. T., Rey, C and Infante, R. Effects of ciprofibrate on liver lipids and lipoprotein synthesis in normo- and hyperlipidemic rats. Atherosclerosis. 1988. 74: 215-225).
The test compounds can be administered orally at a dose 0.1 to 30 mg/kg/day for 3 days. Control group was treated with vehicle alone (0.25% Carboxymethylcellulose; dose 10 ml/kg).
The blood samples can be collected in fed state 1 hour after drug administration on 0 and 3 day of compound treatment. The blood can be collected from the retro-orbital sinus through heparinised capillary in EDTA containing tubes. After centrifugation, plasma sample will be separated for total cholesterol, HDL and triglyceride estimations. Measurement of plasma triglyceride, total cholesterol and HDL were done using commercial kits (Dr. Reddy's Laboratory, Diagnostic Division, India). LDL and VLDL cholesterol can be calculated from the data obtained for total cholesterol, HDL and triglyceride. The reductions of various parameters examined are calculated according to the formula.
(§1) 1. Percent reduction in Blood sugar/triglycerides/total cholesterol will be calculated according to the formula:
(§2) [formula] • OC=Zero day control group value • OT=Zero day treated group value • TC=Test day control group value • TT=Test day treated group value
2. LDL and VLDL, cholesterol levels will be calculated according to the formula:
[formula] VLDL cholesterol in mg/dl=[Total cholesterol-HDL cholesterol-LDL cholesterol]mg/dl.

The target of a further data set is T1, hPPARγ1 (Homo sapiens, UniProt P37231).
T1 construct: expressed in transfected cells; host or cells: HEK-293
T1 sequence (P37231 238-503 limits assumed): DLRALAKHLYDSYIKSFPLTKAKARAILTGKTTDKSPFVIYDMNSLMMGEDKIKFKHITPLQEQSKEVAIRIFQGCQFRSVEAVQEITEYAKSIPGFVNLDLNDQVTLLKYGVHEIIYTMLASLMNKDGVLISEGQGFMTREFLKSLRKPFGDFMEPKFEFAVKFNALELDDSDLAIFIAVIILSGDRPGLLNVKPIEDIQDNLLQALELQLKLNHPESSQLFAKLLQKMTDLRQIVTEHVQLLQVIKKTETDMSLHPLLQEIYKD
In words: Determination of hPPARγ activity (GAL4 luciferase reporter, transfected HEK-293 cells). It counts as cell-based. As to conditions: compound concentration 1 μM. As for the experimental part:
b) Determination of hPPARγ activity Ligand binding domain of hPPARγ1 is fused to DNA binding domain of Yeast transcription factor GAL4 in eucaryotic expression vector. Using lipofectamine (Gibco BRL, USA) as transfecting reagent HEK-293 cells are transfected with this plasmid and a reporter plasmid harboring the luciferase gene driven by a GAL4 specific promoter. Compound can be added at 1 μM concentration after 48 hrs of transfection and incubated overnight. Luciferase activity as a function of drug binding/activation capacity of PPARγ1 will be measured using Packard Luclite kit (Packard, USA) in Packard Top Count (Ivan Sadowski, Brendan Bell, Peter Broag and Melvyn Hollis. Gene. 1992. 118: 137-141; Guide to Eukaryotic Transfections with Cationic Lipid Reagents. Life Technologies, GIBCO BRL, USA).

A further data set deals with T2, hPPARα (Homo sapiens, UniProt Q07869).
T2 construct: expressed in transfected cells; host or cells: HEK-293
T2 sequence (Q07869 239-466 limits assumed): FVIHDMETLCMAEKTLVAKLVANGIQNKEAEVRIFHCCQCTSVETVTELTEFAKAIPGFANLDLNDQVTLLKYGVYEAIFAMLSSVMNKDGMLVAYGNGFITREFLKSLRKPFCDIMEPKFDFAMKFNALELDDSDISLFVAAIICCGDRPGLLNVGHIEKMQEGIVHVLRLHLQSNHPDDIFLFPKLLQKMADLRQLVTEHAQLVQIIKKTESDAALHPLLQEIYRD
As to the kind of experiment: Determination of hPPARα activity (GAL4 luciferase reporter, transfected HEK-293 cells). It counts as cell-based. To be noted: compound concentration 50 μM. Here is the method:
a) Determination of hPPARα activity Ligand binding domain of hPPARα was fused to DNA binding domain of Yeast transcription factor Gal 4 in eucaryotic expression vector. Using superfect (Qiagen, Germany) as transfecting reagent HEK-293 cells are transfected with this plasmid and a reporter plasmid harboring the luciferase gene driven by a GAL4 specific promoter. Compound can be added at different concentrations after 42 hrs of transfection and incubated overnight. Luciferase activity as a function of compound binding/activation capacity of PPARα will be measured using Packard Luclite kit (Packard, USA) in Top Count (Ivan Sadowski, Brendan Bell, Peter Broag and Melvyn Hollis. Gene. 1992. 118: 137-141; Superfect Transfection Reagent Handbook. February 1997. Qiagen, Germany).

Another data set relates to C57BL/KsJ-db/db mice. In words: Efficacy in genetic models: blood sugar and triglyceride lowering in db/db mice. The format is in vivo, mouse. To be noted: 3 mg/kg oral, results after 6 days.
From the text: a) Efficacy in Genetic Models Mutation in colonies of laboratory animals and different sensitivities to dietary regimens has made the development of animal models with non-insulin dependent diabetes and hyperlipidemia associated with obesity and insulin resistance possible. Genetic models such as db/db and ob/ob (Diabetes, (1982) 31(1): 1-6) mice and zucker fa/fa rats have been developed by the various laboratories for understanding the pathophysiology of disease and testing the efficacy of new antidiabetic compounds (Diabetes, (1983) 32: 830-838; Annu. Rep. Sankyo Res. Lab. (1994). 46: 1-57). The homozygous animals, C57 BL/KsJ-db/db mice developed by Jackson Laboratory, US, are obese, hyperglycemic, hyperinsulinemic and insulin resistant (J. Clin. Invest., (1990) 85: 962-967), whereas heterozygous are lean and normoglycemic. In db/db model, mouse progressively develops insulinopenia with age, a feature commonly observed in late stages of human type II diabetes when blood sugar levels are insufficiently controlled. The state of pancreas and its course vary according to the models. Since this model resembles that of type II diabetes mellitus, the compounds of the present invention will be tested for blood sugar and triglycerides lowering activities.
Male C57BL/KsJ-db/db mice of 8 to 14 weeks age, having body weight range of 35 to 60 grams, bred at Dr. Reddy's Research Foundation (DRF) animal house, were used in the experiment. The mice are provided with standard feed (National Institute of Nutrition (NIN), Hyderabad, India) and acidified water, ad libitum. The animals having more than 350 mg/dl blood sugar will be used for testing. The number of animals in each group will be 4.
Test compounds are suspended on 0.25% carboxymethyl cellulose and administered to test group at a dose of 0.1 mg to 30 mg/kg through oral gavage daily for 6 days. The control group receives vehicle (dose 10 ml/kg). On 6th day the blood samples will be collected one hour after administration of test compounds/vehicle for assessing the biological activity.
The random blood sugar and triglyceride levels can be measured by collecting blood (100 μl) through orbital sinus, using heparinised capillary in tubes containing EDTA which was centrifuged to obtain plasma. The plasma glucose and triglyceride levels can be measured spectrometrically, by glucose oxidase and glycerol-3-PO4 oxidase/peroxidase enzyme (Dr. Reddy's Lab. Diagnostic Division Kits, Hyderabad, India) methods respectively.
The blood sugar and triglycerides lowering activities of the test compound are calculated according to the formula.
as §1, §2

The values below come from US7598293B2, “Compounds and their use in medicine, process for their preparation and pharmaceutical compositions containing them” (Dr. Reddy's Laboratories, Inc., priority 2001, dated 2009).

As usually defined, the melting point is the temperature of the solid-liquid transition.

Structures can show the parent of a compound that is named as a salt.

On to `CO[C@@H](Cc1ccc(NC/C=C/c2ccc(OS(C)(=O)=O)cc2)cc1)C(=O)O` [Example 43, (S)-2-Methoxy-3-[4-{(E)-3-(4-methylsulfonyloxyphenyl)-2-propenylamino}phenyl]propionic acid], for which, in data set [1], the “Increase in High Density Lipoprotein (%)” value is given as 77%, the “Reduction in Total Cholesterol (%)” value is reported as 53% and the “Triglyceride Lowering (%)” value came out at 55%. Further, the “Reduction in Low Density Lipoprotein (%)” value in data set [1] (LDL calculated from total cholesterol, HDL and triglyceride) is 56%.
With `CCOC(Cc1ccc(NC(=O)CCc2ccc(OS(C)(=O)=O)cc2)cc1)C(=O)O` (centres unmarked) [Example 34], the melting point lay within 164 to 166 °C.
Compound `CCOC(Cc1ccc(NC(=O)/C=C/c2ccc(OS(C)(=O)=O)cc2)cc1)C(=O)O` (centres unmarked) [Example 32, 2-Ethoxy-3-{4-[(E)-2-(4-methylsulfonyloxyvhenyl)-1-ethenylcarboxamido]-phenyl}propionic acid] gave a melting point of 178 to 180 °C.
On to `CO[C@@H](Cc1ccc(NCCCc2ccc(OS(C)(=O)=O)cc2)cc1)C(=O)O` [Example 14, (S)-2-Methoxy-3-[4-{3-(4-methanesulfonyloxyphenyl)propylamino}phenyl]propionic acid], for which the melting point is 90 to 92 °C. Besides, the PPARγ at hPPARγ1 is 0.7. This compound gave a PPARα on hPPARα of 9.4.
Take `CC(C)OC(Cc1ccc(NCCCc2ccc(OS(C)(=O)=O)cc2)cc1)C(=O)O` (centres unmarked) (hydrate or solvate) [Example 21, 2-Isopropoxy-3-[4-{3-(4-methanesulfonyloxyphenyl)propylamino}phenyl]propionic acid]: the melting point was 143 to 145 °C.
On to `CCOC(=O)[C@H](Cc1ccc(NC/C=C/c2ccc(OS(C)(=O)=O)cc2)cc1)OC` [Example 42, (S) Ethyl 2-methoxy-3-[4-{(E)-3-(4-methylsulfonyloxyphenyl)-2-propenylamino}phenyl]propionate], for which, in the data set on C57BL/KsJ-db/db mice, the “Reduction in Blood Glucose Level (%)” value was determined as 63% and the “Triglyceride Lowering (%)” value was determined as 56%.
For `CCOC(Cc1ccc(NC/C=C/c2ccc(OS(C)(=O)=O)cc2)cc1)C(=O)O` (centres unmarked) [Example 27, 2-Ethoxy-3-{4-[(E)-3-(4-methylsulfonyloxyphenyl)-2-propenylamino]phenyl}propionic acid], the PPARγ at hPPARγ1 is reported as 0.8. On hPPARα, the PPARα was determined as 8.5.
Take `CCOC(=O)C(Cc1ccc(NC(=O)CCc2ccc(OS(C)(=O)=O)cc2)cc1)OCC` (centres unmarked) [Example 33, Ethyl 2-ethoxy-3-[4-(4-methylsulfonyloxyphenethylcarboxamido)phenyl]-propionate]: the melting point lay within 90 to 92 °C.
`CO[C@@H](Cc1ccc(NC/C=C/c2ccc(OS(C)(=O)=O)cc2)cc1)C(=O)O` (hydrate or solvate) [Example 43, (S)-2-Methoxy-3-[4-{(E)-3-(4-methylsulfonyloxyphenyl)-2-propenylamino}phenyl]propionic acid] had a melting point of 116 to 118 °C.
For the compound `CCOC(Cc1ccc(NCCCc2ccc(OS(C)(=O)=O)cc2)cc1)C(=O)O` (centres unmarked) [Example 15, 2-Ethoxy-3-[4-{3-(4-methanesulfonyloxyphenyl)propylamino}phenyl]propionic acid], the PPARγ on hPPARγ1 is given as 0.7. Also, the PPARα on hPPARα worked out at 6.1.
`CCOC(Cc1ccc(NCCCc2ccc(OS(C)(=O)=O)cc2)cc1)C(=O)O` (centres unmarked) (hydrate or solvate) [Example 15, 2-Ethoxy-3-[4-{3-(4-methanesulfonyloxyphenyl)propylamino}phenyl]propionic acid] yielded a melting point of 120 to 122 °C.
The compound `CCOC(Cc1ccc(NC/C=C/c2ccc(OS(C)(=O)=O)cc2)cc1)C(=O)O` (stereo in doubt) [Example 25, (S)-2-Ethoxy-3-{4-[(E)-3-(4-methylsulfonyloxyphenyl)-2-prope-nylamino]phenyl}propionic acid] showed a melting point of 156 to 158 °C.
In turn, `CCOC(Cc1ccc(NCCCc2ccc(OS(=O)(=O)c3ccc(C)cc3)cc2)cc1)C(=O)O` (centres unmarked) (hydrate or solvate) [Example 19, 2-ethoxy-3-[4-{3-(4-(toluene-4-sulfonyloxy)phenyl)propylamino}phenyl]propionate] yielded a melting point of 98 to 100 °C.
As to `CCOC(Cc1cccc(NCCCc2ccc(OS(C)(=O)=O)cc2)c1)C(=O)O` (centres unmarked) [Example 39, 2-Ethoxy-3-[3-{3-(4-methanesulfonyloxyphenyl)propylamino}phenyl]propionic acid Arginine salt], in the data set on C57BL/KsJ-db/db mice, the “Reduction in Blood Glucose Level (%)” value is listed as 56% and the “Triglyceride Lowering (%)” value was determined as 36%.
